In patent US20240350454A1, “BACTERIAL EFFLUX PUMP INHIBITORS AND METHODS OF USE” (THE REGENTS OF THE UNIVERSITY OF COLORADO, priority 2021, published 2024):
Peptide text beside a SMILES is read from it. * marks the point of attachment. βNA = c1ccc2cc(N*)ccc2c1

Experiments:
Type in all cases: cell-based
RAW264.7 macrophages = conditions: mouse, 16 h
Description: (§1) Murine macrophage-like RAW 264.7 cells and HeLa human epithelial cells were obtained from the American Type Tissue Collection. BMDMs were isolated as previously described. Briefly, marrow was flushed from the femurs of 1- to 4-month-old 129SvEvTac mice (Taconic Laboratories) bred in-house. Mononuclear cells were separated using Histopaque-1083 (Sigma), washed, and directly seeded into assay plates at 1×10^5 cells/ml in complete medium supplemented with 35% conditioned media from 3T3 cells expressing MCSF. Media were refreshed three days later. After 1 week, media were replaced with 100 μL fresh media and cells were infected as described below. All three types of cells were grown in DMEM high glucose (Sigma) supplemented with 10% fetal bovine serum, 2 mM L-glutamine, 1 mM sodium pyruvate, 10 mM HEPES, and 50 μMβ-mercaptoethanol. Cells were maintained in a 5% CO2 humidified atmosphere at 37° C. For screening, frozen aliquots of RAW 264.7 were thawed and allowed to expand for three days prior to seeding; other experiments were performed with cultures between passages four and 20.
SAFIRE—RAW264.7 macrophages (7×103 in 40 μL or 5×104 in 100 μL) were seeded, respectively, in 384- or 96-well black-walled glass-bottomed plates (Brooks Automation). Twenty four hours post-seeding, bacteria in 20 or 50 μL PBS were added to a final concentration of 1×10^7 CFU/mL, conditions yielding infection of approximately 70% of macrophages at 18 hours post-infection with minimal macrophage toxicity. The sifB::gfp bacterial reporter strain was used to minimize green signal from extracellular bacteria. […] At two hours post-infection, 200 or 500 nL compound was added using a pin tool (CyBio) to yield a final concentration of 25 μM. Each assay plate included rifampicin and DMSO controls. In some experiments, media were removed and replaced with fresh media containing 40 μg/mL gentamicin and increasing concentrations of the compounds of the disclosure. At 17.5 hours post-infection, PBS containing MitoTracker Red CMXRos (Life Technologies) was added to a final concentration of 300 nM or 100 nM, for 384- or 96-well, respectively. Thirty minutes later, 16% paraformaldehyde was added to a final concentration of […] and incubated at room temperature for 15 minutes. Wells were washed twice with PBS and stained for 20 minutes with 1 μMDAPI; wells were washed twice and stored in 90% glycerol in PBS until imaging. The Z′-factor of the screening platform was 0.59 and 0.48 in 96-well and 384-well plates, respectively, within published ranges for complicated cell-based screens.
In addition, toxicity was measured according the following procedure: 1) analyzing macrophage cell morphology; and 2) using MATLAB to count cells (cells that lift up and float after treatment are not within the appropriate Z plane to be counted, and thus are considered dead). If 70% of the cells are adherent (as measured by comparing the number of cells before and after treatment), the compound is considered not toxic. Compounds that pass #1 and #2 above are considered to have a toxicity “>50 μM”. […]

[1] = test system: S. enterica serovar Typhimurium SL1344 sifB::gfp in RAW264.7 macrophages; assay: SAFIRE assay, intracellular bacterial load in macrophages; conditions: Salmonella enterica
Protocol: The following experiments were performed using the SAFIRE assay described in U.S. Publication 2020/0022961, which is incorporated by reference in its entirety for all purposes. SAFIRE (Screen for Anti-infectives using Fluorescence microscopy of IntracellulaR Enterobacteriaceae) uses cell culture as a surrogate to identify compounds that prevent intracellular replication of a model Gram-negative bacterial human pathogen. The method identifies compounds that prevent bacterial growth in broth culture and compounds that decrease the load of Gram-negative bacteria inside of macrophages at concentrations≤10 μM but have no effect on bacterial growth in standard Mueller Hinton broth (MHB) at 100 μM. Thus, SAFIRE enables the discovery of compounds that are effective against Gram-negative bacteria in host cells and in whole animals, whether or not they are antibacterial in broth.
(§2) The wild-type S. enterica serovar Typhimurium strain, SL1344, was initially isolated from the blood of an infected calf. For screening and validation in macrophages, SL1344 sifB::gfp was grown in Luria-Bertani Broth (LB) with 30 μg/ml streptomycin and 30 μg/ml kanamycin to saturation overnight, diluted to an OD of 0.001 and frozen in 100 μL aliquots in 20% glycerol at −80° C. Prior to infection, aliquots were grown in 5 mL cultures of LB with 30 μg/ml streptomycin and 30 μg/ml kanamycin for 18 hours at 37° C. with aeration. Bacterial strains were routinely grown in LB with antibiotics: 30 μg/ml streptomycin, 30 μg/ml kanamycin, 50 μg/ml ampicillin, 10 μg/ml tetracycline, and/or 1.15 μg/ml meropenem. The acrAB::kan and macAB::kan strains were constructed according to known methods. S. enterica subsp. enterica, serovar Typhimurium strain S10801, NR-22067 is a multidrug resistant isolate from a calf with sepsis. This strain and others as indicated were obtained through BEI resources, NIAID, NIH.
as §1
SAFIRE—RAW264.7 macrophages (7×103 in 40 μL or 5×104 in 100 μL) were seeded, respectively, in 384- or 96-well black-walled glass-bottomed plates (Brooks Automation). Twenty four hours post-seeding, bacteria in 20 or 50 μL PBS were added to a final concentration of 1×10^7 CFU/mL, conditions yielding infection of approximately 70% of macrophages at 18 hours post-infection with minimal macrophage toxicity. The sifB::gfp bacterial reporter strain was used to minimize green signal from extracellular bacteria. […] At two hours post-infection, 200 or 500 nL compound was added using a pin tool (CyBio) to yield a final concentration of 25 μM. Each assay plate included rifampicin and DMSO controls. In some experiments, media were removed and replaced with fresh media containing 40 μg/mL gentamicin and increasing concentrations of the compounds of the disclosure. […]

E. Cloacae MB315 = assay: PMB MIC with selected compound in MHB; conditions: for MIC: Enterobacter cloacae, selected compound 50 μg/mL in MHB
Protocol: (§3) MIC for the antibiotic alone (i.e., in the absence of the disclosed compounds) is provided in the first row labeled “None”. […] […] At this concentration (50 μg/mL), the compounds of the disclosure lacked intrinsic antibacterial activity but a significant improvement in efficacy was still observed. Thus, the compounds of the disclosure may be used to potentiate the activity of antibiotics that have lost their efficacy due to efflux.

[2] = test system: S. enterica sp. Enterica S10801; assay: Doxycycline MIC with selected compound in MHB
Protocol: as §2
MIC for the antibiotic alone (i.e., in the absence of the disclosed compounds) is provided in the first row labeled “None”. […] At this concentration (50 μg/mL), the compounds of the disclosure lacked intrinsic antibacterial activity but a significant improvement in efficacy was still observed. […]

K. pneumoniae BAA-1705 [3] = assay: Doxycycline MIC with selected compound in MHB
Description: (§4) MIC for the antibiotic alone (i.e., in the absence of the disclosed compounds) is provided in the first row labeled “None”. […] […] […] Thus, the compounds of the disclosure may be used to potentiate the activity of antibiotics that have lost their efficacy due to efflux.

K. pneumoniae BAA-2342 [4] = assay: Doxycycline MIC with selected compound in MHB
Description: as §4

E. coli BAA-2340 [5] = assay: Doxycycline MIC with selected compound in MHB
Description: as §4

E. cloacae BAA-2341 [6] = assay: Doxycycline MIC with selected compound in MHB
Protocol: as §3

E. cloacae BAA-2341 [7] = assay: Ciprofloxacin MIC with selected compound in MHB; conditions: comparator at 25 μg/mL in MHB
E. coli BAA-2340 [8] = assay: Ciprofloxacin MIC with selected compound in MHB; conditions: comparator at 25 μg/mL in MHB
K. pneumoniae BAA-1705 [9] = assay: Ciprofloxacin MIC with selected compound in MHB; conditions: comparator at 25 μg/mL in MHB
Protocol: as §3

A. baumannii MB306 = assay: Chloramphenicol MIC with selected compound in MHB; conditions: comparator at 25 μg/mL in MHB
Description: as §4

E. cloacae BAA-2341 [10] = assay: Chloramphenicol MIC with selected compound in MHB; conditions: comparator at 25 μg/mL in MHB
Description: as §4

A. baumannii MB309 = assay: Chloramphenicol MIC with selected compound in MHB; conditions: comparator at 25 μg/mL in MHB
Description: as §4

K. pneumoniae BAA-2342 [11] = assay: Chloramphenicol MIC with selected compound in MHB; conditions: comparator at 25 μg/mL in MHB
Description: as §4

K. pneumoniae BAA-2342 [12] = assay: Ciprofloxacin MIC with selected compound in MHB; conditions: comparator at 25 μg/mL in MHB
[13] = test system: P. aeruginosa Focus MB0477; assay: Chloramphenicol MIC with selected compound in MHB; conditions: comparator at 25 μg/mL in MHB
Protocol: as §3

E. coli BAA-2340 [14] = assay: Chloramphenicol MIC with selected compound in MHB; conditions: comparator at 25 μg/mL in MHB
Protocol: as §3

| Compound | Toxicity (RAW264.7 macrophages) | IC50 [1] [nM] | MIC (E. Cloacae MB315) [µg/mL] | other results |
| --- | --- | --- | --- | --- |
| NCC1CCN(CC(O)COc2cc(Cl)cc(Cl)c2)C1 (stereo not shown) [Compound 10] | <50 but >25 μM | < 1000 | 32 | – |
| COCCCN(C)C1CCN(CC(O)COc2ccc(Cl)c(Cl)c2)CC1 (stereo not shown) [Compound 11] | >50 µM | < 1000 | – | – |
| NC1CCN(CC(O)COc2cccc(C(F)(F)F)c2)CC1 (stereo not shown) [Compound 12] | >50 µM | < 1000 | – | – |
| N[C@@H]1CCN(C[C@H](O)COc2ccc(Cl)c(Cl)c2)C1 [Compound 13] | >50 µM | < 1000 | – | – |
| N[C@H]1CCN(C[C@H](O)COc2ccc(Cl)c(Cl)c2)C1 [Compound 14] | >50 µM | > 1000 | – | – |
| N[C@@H]1CCN(C[C@@H](O)COc2ccc(Cl)c(Cl)c2)C1 [Compound 15] | >50 µM | < 1000 | – | – |
| N[C@H]1CCN(C[C@@H](O)COc2ccc(Cl)c(Cl)c2)C1 [Compound 16] | >50 µM | < 1000 | 32 | – |
| CC1(N)CCN(CC(O)COc2cc(Cl)cc(Cl)c2)CC1 (stereo not shown) [Compound 17] | <25 µM | < 1000 | 16 | – |
| OC(CN[C@H]1[C@@H]2CNC[C@@H]21)COc1cc(Cl)cc(Cl)c1 (stereo partly shown) [Compound 18] | >50 µM | < 1000 | 1 | – |
| CN(CCCCN)CC(O)COc1cc(Cl)cc(Cl)c1 (stereo not shown) [Compound 19] | <50 but >25 μM | < 1000 | 32 | – |
| C[C@H]1c2cccc(O)c2C(=O)C2=C(O)[C@]3(O)C(=O)C(C(N)=O)=C(O)[C@@H](N(C)C)[C@@H]3[C@@H](O)[C@@H]21 [Doxycycline, doxycycline] | – | – | – | MIC ([2]; Salmonella enterica, antibiotic alone (row None), MHB): 32 µg/mL; MIC (K. pneumoniae BAA-1705 [3]; Klebsiella pneumoniae, BAA1705, antibiotic alone (row None), MHB): 4 µg/mL; MIC (K. pneumoniae BAA-2342 [4]; Klebsiella pneumoniae, BAA2342, antibiotic alone (row None), MHB): 8 µg/mL; MIC (E. coli BAA-2340 [5]; Escherichia coli, BAA2340, antibiotic alone (row None), MHB): 8 µg/mL; MIC (E. cloacae BAA-2341 [6]; Enterobacter cloacae, BAA2341, antibiotic alone (row None), MHB): 8 µg/mL |
| N=C(N)NCCC[C@H](NC(=O)[C@@H](N)Cc1ccccc1)C(=O)Nc1ccc2ccccc2c1 [PAβN] (H-Phe-Arg-βNA) | – | – | – | Ciprofloxacin MIC (E. cloacae BAA-2341 [7]): 16 µg/mL; Doxycycline MIC ([2]; comparator at 25 μg/mL in MHB): 8 µg/mL; Doxycycline MIC (K. pneumoniae BAA-1705 [3]; comparator at 25 μg/mL in MHB): ≤1 µg/mL; Doxycycline MIC (K. pneumoniae BAA-2342 [4]; comparator at 25 μg/mL in MHB): ≤1 µg/mL; Doxycycline MIC (E. coli BAA-2340 [5]; comparator at 25 μg/mL in MHB): ≤1 µg/mL; Ciprofloxacin MIC (E. coli BAA-2340 [8]): 16 µg/mL; Ciprofloxacin MIC (K. pneumoniae BAA-1705 [9]): 64 µg/mL; Chloramphenicol MIC (A. baumannii MB306): 32 µg/mL; Chloramphenicol MIC (E. cloacae BAA-2341 [10]): 2 µg/mL; Chloramphenicol MIC (A. baumannii MB309): 64 µg/mL; Chloramphenicol MIC (K. pneumoniae BAA-2342 [11]): 8 µg/mL; Doxycycline MIC (E. cloacae BAA-2341 [6]; comparator at 25 μg/mL in MHB): ≤1 µg/mL; PMB MIC (E. Cloacae MB315; comparator at 25 μg/mL in MHB): 32 µg/mL; Ciprofloxacin MIC (K. pneumoniae BAA-2342 [12]): 16 µg/mL; Chloramphenicol MIC [13]: 1 µg/mL; Chloramphenicol MIC (E. coli BAA-2340 [14]): 8 µg/mL |
